Read-outs that look alike come from different tables or passages of the source.
Assays:
[1] = system: LNCaP prostate cancer cells; assay type: cell-based, human; conditions: 48 h
Method: Cells were analyzed on a FACS Calibur (Becton Dickinson, San Jose, Calif.) flow cytometer, equipped with a 15 mW air-cooled argon laser, using CellQuest (Becton Dickinson) acquisition software. Propidium iodide (PI) fluorescence was collected through a 585/42-nm bandpass filter, and list mode data were acquired on a minimum of 12,000 single cells defined by a dot plot of PI-width versus PI-area. Data analysis was performed in ModFit LT (Verity Software House, Topsham, Me.) using PI-width versus PI-area to exclude cell aggregates.
The effects of TCDD on cell cycle progression was also determined in LNCaP cells treated with 1.0, 10 and 100 nM TCDD for 48 h followed by FACS analysis (Table 1).

[2] = biological target: T1, hAR (Homo sapiens, UniProt P10275); test: Hormone-induced transactivation in ZR-75 cells cotransfected with pPB and hAR; assay type: cell-based; conditions: cotreated with hormone plus TCDD
T1 construct: expressed in transfected cells; host or cells: ZR-75
T1 sequence (P10275 1-920): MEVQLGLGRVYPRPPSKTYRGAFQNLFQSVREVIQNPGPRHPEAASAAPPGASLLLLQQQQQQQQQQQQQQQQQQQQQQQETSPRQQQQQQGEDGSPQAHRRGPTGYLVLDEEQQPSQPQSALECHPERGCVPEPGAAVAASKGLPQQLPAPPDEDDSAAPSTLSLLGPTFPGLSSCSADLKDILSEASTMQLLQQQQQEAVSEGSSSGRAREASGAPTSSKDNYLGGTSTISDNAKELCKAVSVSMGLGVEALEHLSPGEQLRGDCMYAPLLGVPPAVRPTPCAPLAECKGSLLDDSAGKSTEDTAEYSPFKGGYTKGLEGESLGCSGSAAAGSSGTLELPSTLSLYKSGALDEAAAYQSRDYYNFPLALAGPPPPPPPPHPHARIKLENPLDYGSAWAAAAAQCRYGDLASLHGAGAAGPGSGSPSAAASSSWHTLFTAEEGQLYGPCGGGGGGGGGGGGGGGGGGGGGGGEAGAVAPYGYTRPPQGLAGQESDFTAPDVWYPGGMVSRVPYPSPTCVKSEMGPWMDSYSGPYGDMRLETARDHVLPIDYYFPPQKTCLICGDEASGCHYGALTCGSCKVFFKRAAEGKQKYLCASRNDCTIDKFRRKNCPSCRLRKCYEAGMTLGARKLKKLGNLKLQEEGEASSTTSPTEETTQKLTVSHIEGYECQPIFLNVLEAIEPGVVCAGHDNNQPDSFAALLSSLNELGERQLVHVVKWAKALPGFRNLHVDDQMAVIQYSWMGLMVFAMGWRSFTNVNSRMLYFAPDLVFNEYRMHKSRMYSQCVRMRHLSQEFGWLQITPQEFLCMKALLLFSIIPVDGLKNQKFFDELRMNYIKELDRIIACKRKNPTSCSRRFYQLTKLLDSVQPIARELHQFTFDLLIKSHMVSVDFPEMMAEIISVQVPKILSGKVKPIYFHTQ
Method: After 24 h, cells were transfected using Lipofectamine and Plus reagents (Invitrogen) according to manufacturer's instructions. LNCaP and ZR-75 cells were transfected with 500 ng/well of either reporter plasmid, and 250 ng/well of pcDNA3.1-β-gal (Invitrogen) as the internal control. In addition, ZR-75 cells were transfected with 500 ng hAR. Twenty-four hours after treatment, cells were harvested by scraping with 200 μL/well of reporter lysis buffer. Lysates were centrifuged at 40,000 g and luciferase and β-galactosidase activity was assayed with 30 μL of the supernatant extract per sample using a Lumicount luminometer (PerkinElmer, Boston, Mass.). Luciferase activity was normalized to β-galactosidase activity for each transfection well.

Clc1cc2c(cc1Cl)Oc1cc(Cl)c(Cl)cc1O2 [TCDD, 2,3,7,8-tetrachloro-p-dioxin]
cells in S phase ([1]; 1.0, 10 and 100 nM): decrease | percentage of cells in G0/G1 ([1]; 1.0, 10 and 100 nM): small but significant increase | Percent Distribution G0/G1 ([1]; 10^−7 M): 77.500 ± 0.451% | Percent Distribution G2/M ([1]; 10^−7 M): 8.943 ± 0.471% | Percent Distribution S ([1]; 10^−7 M): 13.567 ± 0.176% | Percent Distribution G0/G1 ([1]; 10^−8 M): 75.367 ± 0.636% | Percent Distribution G2/M ([1]; 10^−8 M): 10.300 ± 0.153% | Percent Distribution S ([1]; 10^−8 M): 14.3 ± 0.666% | Percent Distribution G0/G1 ([1]; 10^−9 M): 74.300 ± 0.751% | Percent Distribution G2/M ([1]; 10^−9 M): 10.633 ± 0.376% | Percent Distribution S ([1]; 10^−9 M): 14.7 ± 0.520% | effect on DHT-induced activity [2]: not | effect on E2-induced activity [2]: inhibited
